What was measured:
Type in all cases: toxicity, cell-based
[1] = tested on: HEK-293T; assay: Incucyte cell viability with HEK293T; settings: human, 10 µM, compound concentration 10 uM
[2] = tested on: Fibroblast; assay: Incucyte cell viability with human fibroblast; settings: 10 µM, compound concentration 10 uM
[3] = tested on: U2OS; assay: Incucyte cell viability with U2OS; settings: human, 10 µM, compound concentration 10 uM
Note: unitless GR value; below 1 slowed growth and below 0 cell loss.

SMILES: NS(=O)(=O)c1cncc(-c2nc(NCc3ccccn3)c3c(-c4ccccc4)cccc3n2)c1 [BMS-919373]
- Growth Rate ([1]; 6 h, replicate number 1): 0.01
- Growth Rate ([1]; 6 h, replicate number 2): 0.33
- Growth Rate ([1]; 12 h, replicate number 1): 0.64
- Growth Rate ([1]; 12 h, replicate number 2): 0.24
- Growth Rate ([1]; 18 h, replicate number 1): 0.69
- Growth Rate ([1]; 18 h, replicate number 2): 0.22
- Growth Rate ([1]; 24 h, replicate number 1): 1
- Growth Rate ([1]; 24 h, replicate number 2): 0.26
- Growth Rate ([2]; 0 h, replicate number 2): -0.92
- Growth Rate ([2]; 12 h, replicate number 1): -1
- Growth Rate ([2]; 18 h, replicate number 1): 0.34
- Growth Rate ([3]; 0 h, replicate number 1): 0.72
- Growth Rate ([3]; 0 h, replicate number 2): -0.7
- Growth Rate ([3]; 12 h, replicate number 1): 0.98
- Growth Rate ([3]; 12 h, replicate number 2): 0.71
- Growth Rate ([3]; 18 h, replicate number 2): 0.59
- Growth Rate ([3]; 24 h, replicate number 2): 0.63

SMILES: Cc1cc(OCc2nc3ccccc3s2)ccc1NC(=O)Nc1ccc(Cl)c(Cl)c1
- Growth Rate ([1]; 0 h, replicate number 1): 0.1
- Growth Rate ([1]; 0 h, replicate number 2): -0.01
- Growth Rate ([1]; 12 h, replicate number 2): 0.92
- Growth Rate ([2]; 0 h, replicate number 1): -1
- Growth Rate ([2]; 0 h, replicate number 2): -0.81
- Growth Rate ([2]; 12 h, replicate number 2): 0.94
- Growth Rate ([2]; 18 h, replicate number 2): 0.94
- Growth Rate ([2]; 24 h, replicate number 2): 0.92
- Growth Rate ([3]; 18 h, replicate number 2): 0.98

SMILES: Cc1cc(O)c(-c2ccc([C@@H](C)CN(C)C)cc2)c2c1[nH]c(=O)c1sccc12
- Growth Rate ([1]; 6 h, replicate number 1): -0.94
- Growth Rate ([1]; 6 h, replicate number 2): -0.93
- Growth Rate ([1]; 12 h, replicate number 1): -0.89
- Growth Rate ([1]; 12 h, replicate number 2): -0.74
- Growth Rate ([1]; 18 h, replicate number 1): -0.72
- Growth Rate ([1]; 18 h, replicate number 2): -0.54
- Growth Rate ([1]; 24 h, replicate number 1): -0.64
- Growth Rate ([1]; 24 h, replicate number 2): -0.41
- Growth Rate ([2]; 0 h, replicate number 1): 0.34
- Growth Rate ([2]; 0 h, replicate number 2): 0.6
- Growth Rate ([2]; 6 h, replicate number 1): -1
- Growth Rate ([2]; 6 h, replicate number 2): -0.58
- Growth Rate ([2]; 12 h, replicate number 2): -0.46
- Growth Rate ([2]; 18 h, replicate number 2): -0.35
- Growth Rate ([2]; 24 h, replicate number 1): 0.28
- Growth Rate ([2]; 24 h, replicate number 2): -0.3
- Growth Rate ([3]; 0 h, replicate number 1): -0.87
- Growth Rate ([3]; 0 h, replicate number 2): -0.95
- Growth Rate ([3]; 12 h, replicate number 1): 0.42
- Growth Rate ([3]; 12 h, replicate number 2): 0.43
- Growth Rate ([3]; 18 h, replicate number 1): 0.16
- Growth Rate ([3]; 18 h, replicate number 2): 0.08
- Growth Rate ([3]; 24 h, replicate number 1): -0.11
- Growth Rate ([3]; 24 h, replicate number 2): -0.1

SMILES: O=C(O)c1ccc(S(=O)(=O)N(Cc2ccc(OC(F)(F)F)cc2)c2ncc(C(F)(F)F)cc2Cl)cc1
- Growth Rate ([1]; 0 h, replicate number 1): 0.66
- Growth Rate ([1]; 6 h, replicate number 2): 0.33
- Growth Rate ([1]; 12 h, replicate number 2): 0.79
- Growth Rate ([1]; 18 h, replicate number 2): 0.81
- Growth Rate ([1]; 24 h, replicate number 2): 0.93
- Growth Rate ([2]; 0 h, replicate number 1): 0.4
- Growth Rate ([2]; 0 h, replicate number 2): -0.5
- Growth Rate ([2]; 6 h, replicate number 1): 0.15
- Growth Rate ([2]; 18 h, replicate number 1): 0.16
- Growth Rate ([2]; 24 h, replicate number 1): 0.93
- Growth Rate ([3]; 6 h, replicate number 2): 0.99
- Growth Rate ([3]; 12 h, replicate number 2): 0.75
- Growth Rate ([3]; 18 h, replicate number 2): 0.93
- Growth Rate ([3]; 24 h, replicate number 2): 0.85

SMILES: CC[C@H](C(=O)Nc1ccccc1N1CCCC1)c1ccccc1
- Growth Rate ([1]; 6 h, replicate number 1): 0.92
- Growth Rate ([1]; 6 h, replicate number 2): 0.91
- Growth Rate ([2]; 6 h, replicate number 2): -0.59
- Growth Rate ([2]; 12 h, replicate number 2): 0.33
- Growth Rate ([2]; 18 h, replicate number 1): -0.04
- Growth Rate ([2]; 18 h, replicate number 2): 0.67
- Growth Rate ([2]; 24 h, replicate number 1): -0.08
- Growth Rate ([2]; 24 h, replicate number 2): 0.9
- Growth Rate ([3]; 18 h, replicate number 2): 0.84
- Growth Rate ([3]; 24 h, replicate number 2): 0.84

SMILES: O=C(O)c1ccnc(N2CC(O)(c3ccc(OCc4c(-c5c(Cl)cccc5Cl)noc4C4CC4)cc3Cl)C2)c1 [CILOFEXOR]
- Growth Rate ([1]; 0 h, replicate number 1): 0.8
- Growth Rate ([1]; 0 h, replicate number 2): 0.73
- Growth Rate ([1]; 6 h, replicate number 2): 0.54
- Growth Rate ([1]; 12 h, replicate number 2): 0.68
- Growth Rate ([1]; 18 h, replicate number 2): 0.85
- Growth Rate ([1]; 24 h, replicate number 1): 0.89
- Growth Rate ([1]; 24 h, replicate number 2): 1
- Growth Rate ([2]; 6 h, replicate number 2): -0.03
- Growth Rate ([2]; 18 h, replicate number 1): 0.87
- Growth Rate ([2]; 24 h, replicate number 2): 0.8
- Growth Rate ([3]; 12 h, replicate number 2): 1

SMILES: C1=Cc2ccccc2C(=C2CCN(CCCCc3nn[nH]n3)CC2)c2ccccc21
- Growth Rate ([1]; 0 h, replicate number 1): 0.42
- Growth Rate ([1]; 6 h, replicate number 1): 0.94
- Growth Rate ([1]; 6 h, replicate number 2): 0.78
- Growth Rate ([1]; 12 h, replicate number 2): 0.94
- Growth Rate ([1]; 18 h, replicate number 1): 0.91
- Growth Rate ([2]; 0 h, replicate number 2): -0.99
- Growth Rate ([3]; 6 h, replicate number 1): 0.4
- Growth Rate ([3]; 24 h, replicate number 1): 0.89

SMILES: CCCOc1cnc(CN/C=C2\C(=O)NC(=O)c3ccc(I)cc32)cc1O
- Growth Rate ([1]; 0 h, replicate number 1): 0.51
- Growth Rate ([1]; 6 h, replicate number 1): -0.81
- Growth Rate ([1]; 6 h, replicate number 2): -0.9
- Growth Rate ([1]; 12 h, replicate number 1): -0.75
- Growth Rate ([1]; 12 h, replicate number 2): -0.74
- Growth Rate ([1]; 18 h, replicate number 1): -0.63
- Growth Rate ([1]; 18 h, replicate number 2): -0.6
- Growth Rate ([1]; 24 h, replicate number 1): -0.58
- Growth Rate ([1]; 24 h, replicate number 2): -0.47
- Growth Rate ([2]; 0 h, replicate number 1): 0.29
- Growth Rate ([2]; 6 h, replicate number 1): -0.88
- Growth Rate ([2]; 6 h, replicate number 2): -0.38
- Growth Rate ([2]; 12 h, replicate number 1): -0.79
- Growth Rate ([2]; 12 h, replicate number 2): -0.06
- Growth Rate ([2]; 18 h, replicate number 2): 0.1
- Growth Rate ([2]; 24 h, replicate number 1): 0.11
- Growth Rate ([2]; 24 h, replicate number 2): 0.16
- Growth Rate ([3]; 0 h, replicate number 2): -1
- Growth Rate ([3]; 12 h, replicate number 1): 0.89
- Growth Rate ([3]; 12 h, replicate number 2): 0.75
- Growth Rate ([3]; 18 h, replicate number 1): 0.45
- Growth Rate ([3]; 18 h, replicate number 2): 0.38
- Growth Rate ([3]; 24 h, replicate number 1): 0.07
- Growth Rate ([3]; 24 h, replicate number 2): 0

SMILES: CCOC(=O)C1=C[C@]2(CC)CCCN3CCc4c(n1c1ccccc41)[C@@H]32 [VINPOCETINE]
- Growth Rate ([1]; 0 h, replicate number 2): 0.71
- Growth Rate ([1]; 6 h, replicate number 1): 0.46
- Growth Rate ([1]; 12 h, replicate number 1): 1
- Growth Rate ([1]; 12 h, replicate number 2): 0.83
- Growth Rate ([1]; 18 h, replicate number 1): 0.95
- Growth Rate ([1]; 18 h, replicate number 2): 0.89
- Growth Rate ([1]; 24 h, replicate number 1): 0.94
- Growth Rate ([2]; 6 h, replicate number 1): 0.56
- Growth Rate ([2]; 6 h, replicate number 2): -0.97
- Growth Rate ([2]; 12 h, replicate number 1): -1
- Growth Rate ([2]; 12 h, replicate number 2): 0.32
- Growth Rate ([2]; 18 h, replicate number 2): 0.85
- Growth Rate ([3]; 0 h, replicate number 1): -0.74
- Growth Rate ([3]; 0 h, replicate number 2): -0.97
- Growth Rate ([3]; 6 h, replicate number 2): 0.42
- Growth Rate ([3]; 12 h, replicate number 2): 0.83
- Growth Rate ([3]; 18 h, replicate number 2): 0.73
- Growth Rate ([3]; 24 h, replicate number 2): 0.79

SMILES: COc1c(NC(=O)c2cc3cccc(Oc4ccnc(C(=O)N5CCN(C)CC5)c4)c3n2C)cc(C(C)(C)C)cc1NS(C)(=O)=O
- Growth Rate ([1]; 0 h, replicate number 1): 0.87
- Growth Rate ([1]; 0 h, replicate number 2): -0.84
- Growth Rate ([1]; 6 h, replicate number 1): 0.93
- Growth Rate ([1]; 6 h, replicate number 2): 0.57
- Growth Rate ([1]; 12 h, replicate number 2): 0.77
- Growth Rate ([1]; 18 h, replicate number 2): 0.93
- Growth Rate ([2]; 6 h, replicate number 1): 0.02
- Growth Rate ([2]; 6 h, replicate number 2): 0.43
- Growth Rate ([2]; 12 h, replicate number 2): 0.98
- Growth Rate ([3]; 0 h, replicate number 1): -0.03
- Growth Rate ([3]; 0 h, replicate number 2): 0.57
- Growth Rate ([3]; 6 h, replicate number 1): 0.82
- Growth Rate ([3]; 6 h, replicate number 2): 0.58
- Growth Rate ([3]; 12 h, replicate number 1): 0.79
- Growth Rate ([3]; 12 h, replicate number 2): 0.69
- Growth Rate ([3]; 18 h, replicate number 1): 0.83
- Growth Rate ([3]; 18 h, replicate number 2): 0.7
- Growth Rate ([3]; 24 h, replicate number 1): 0.84
- Growth Rate ([3]; 24 h, replicate number 2): 0.69

SMILES: O=C(Nc1ccc(-n2nc(C(F)(F)F)cc2C(F)(F)F)cc1)c1ccncc1F
- Growth Rate ([1]; 6 h, replicate number 1): -0.04
- Growth Rate ([1]; 6 h, replicate number 2): -0.25
- Growth Rate ([1]; 12 h, replicate number 1): 0.33
- Growth Rate ([1]; 12 h, replicate number 2): 0.24
- Growth Rate ([1]; 18 h, replicate number 1): 0.25
- Growth Rate ([1]; 18 h, replicate number 2): 0.42
- Growth Rate ([1]; 24 h, replicate number 1): 0.31
- Growth Rate ([1]; 24 h, replicate number 2): 0.46
- Growth Rate ([2]; 0 h, replicate number 1): -0.09
- Growth Rate ([2]; 6 h, replicate number 1): 0.37
- Growth Rate ([2]; 6 h, replicate number 2): -1
- Growth Rate ([2]; 12 h, replicate number 1): -1
- Growth Rate ([2]; 12 h, replicate number 2): 0.14
- Growth Rate ([2]; 18 h, replicate number 2): 0.72
- Growth Rate ([2]; 24 h, replicate number 1): 0.81
- Growth Rate ([2]; 24 h, replicate number 2): 0.69
- Growth Rate ([3]; 0 h, replicate number 2): -1
- Growth Rate ([3]; 6 h, replicate number 1): -0.16
- Growth Rate ([3]; 6 h, replicate number 2): 0.41
- Growth Rate ([3]; 12 h, replicate number 1): 0.54
- Growth Rate ([3]; 12 h, replicate number 2): 0.63
- Growth Rate ([3]; 18 h, replicate number 1): 0.8
- Growth Rate ([3]; 18 h, replicate number 2): 0.66
- Growth Rate ([3]; 24 h, replicate number 1): 0.69
- Growth Rate ([3]; 24 h, replicate number 2): 0.77

From ChEMBL document CHEMBL5303304, “EUbOPEN Chemogenomics Library - IncuCyte” (2023)
